Reference: patent publication US9115092B2, “Substituted quinazoline and pyrido-pyrimidine derivatives” (Asana Biosciences, LLC, priority 2010, dated 2015)

Tests used:
pAkt(5473), T47D cells = test: In-cell Western assay, pAkt(5473) in T47D cells; assay type: cell-based; details: Homo sapiens, T47D cell line, read-out: inhibition of pAkt(5473), IC50
pS6RP, T47D cells = test: In-cell Western assay, pS6RP in T47D cells; assay type: cell-based; details: Homo sapiens, T47D cell line, read-out: inhibition of pS6RP, IC50
pAkt(5473), BT474 cells = test: In-cell Western assay, pAkt(5473) in BT474 cells; assay type: cell-based; details: Homo sapiens, BT-474, BT474 cell line, read-out: inhibition of pAkt(5473), IC50
pS6RP, BT474 cells = test: In-cell Western assay, pS6RP in BT474 cells; assay type: cell-based; details: Homo sapiens, BT-474, BT474 cell line, read-out: inhibition of pS6RP, IC50
T47D cells = test: XTT assay for cell viability, T47D cells; assay type: cell-based; details: Homo sapiens, read-out: inhibition of cell proliferation, IC50
Protocol: (§1) Using a commercial kit from Sigma Aldrich (Catalog #X34251) and following its protocol, PC3 cells in the log phase of growth were employed and seeded at an optimal density of 1000 cell/well on to 96 well plates and incubated for 24 h followed by the addition of compounds of formula (I) in serial dilutions. Compound dilutions were made in DMSO. The cells were incubated with the compounds of formula (I) for 96 h and XTT tetrazolium dye (Sigma, USA) was subsequently added and incubated at 37° C. After the color formation, absorbance was measured at 465 nm in a Spectramax® Gemini spectrophotometer. EC50 values were calculated using a sigmoidal dose response curve fit in GraphPad Prism® v5 software. The tested compounds of formula (I) which caused inhibition of PC3 cell proliferation as determined by this assay protocol are shown in Table 2.
(§2) XTT assays for cell viability are also determined in BT474 cells and T47D cells, in a similar manner to the protocol described above.

BT474 cells = test: XTT assay for cell viability, BT474 cells; assay type: cell-based; details: Homo sapiens, BT-474, read-out: inhibition of cell proliferation, IC50
Protocol: as §1, §2

PI3 kinase isoform γ = PI3 kinase isoform γ (Homo sapiens, UniProt P48736); test: PI3 Kinase TR-FRET assay, isoform γ; assay type: biochemical; details: read-out: inhibition of PI3 kinase isoform γ, IC50
Sequence of PI3 kinase isoform γ (P48736 whole entry, the tested form may be a part, canonical isoform): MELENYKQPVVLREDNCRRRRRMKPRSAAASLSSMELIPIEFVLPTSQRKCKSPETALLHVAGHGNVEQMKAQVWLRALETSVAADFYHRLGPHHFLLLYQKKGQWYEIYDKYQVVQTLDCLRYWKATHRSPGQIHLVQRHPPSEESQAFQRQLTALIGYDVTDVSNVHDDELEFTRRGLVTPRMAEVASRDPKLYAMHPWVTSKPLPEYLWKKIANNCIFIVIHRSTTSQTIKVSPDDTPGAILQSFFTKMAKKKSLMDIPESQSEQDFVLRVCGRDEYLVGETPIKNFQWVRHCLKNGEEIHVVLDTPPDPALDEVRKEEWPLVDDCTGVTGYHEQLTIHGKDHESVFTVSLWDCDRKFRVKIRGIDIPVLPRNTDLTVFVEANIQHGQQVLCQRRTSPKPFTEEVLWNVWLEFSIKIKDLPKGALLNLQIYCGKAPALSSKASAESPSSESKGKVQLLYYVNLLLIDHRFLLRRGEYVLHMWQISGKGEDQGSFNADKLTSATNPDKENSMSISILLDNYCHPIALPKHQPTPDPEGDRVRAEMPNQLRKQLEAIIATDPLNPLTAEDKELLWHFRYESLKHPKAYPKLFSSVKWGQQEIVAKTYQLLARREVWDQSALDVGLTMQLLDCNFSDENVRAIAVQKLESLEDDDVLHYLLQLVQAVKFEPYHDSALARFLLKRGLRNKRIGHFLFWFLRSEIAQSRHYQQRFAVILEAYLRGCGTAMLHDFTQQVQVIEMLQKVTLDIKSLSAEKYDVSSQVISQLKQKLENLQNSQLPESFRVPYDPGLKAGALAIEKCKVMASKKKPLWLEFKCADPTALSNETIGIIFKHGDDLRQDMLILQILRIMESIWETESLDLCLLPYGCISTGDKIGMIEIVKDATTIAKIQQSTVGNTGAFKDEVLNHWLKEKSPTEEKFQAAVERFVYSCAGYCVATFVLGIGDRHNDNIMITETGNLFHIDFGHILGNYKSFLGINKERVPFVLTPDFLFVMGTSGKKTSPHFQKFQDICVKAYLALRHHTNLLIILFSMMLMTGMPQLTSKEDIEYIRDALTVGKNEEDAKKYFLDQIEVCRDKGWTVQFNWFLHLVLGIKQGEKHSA
Protocol: The ability of compounds of the invention to inhibit PI3K activity was determined in a homogeneous TR-FRET assay using a PI3K assay kit (Millipore, USA; cat #33-016) according to manufacturer's instructions. PI3-Kinases (isoforms α, β, γ and δ) catalyze the phosphorylation of phosphatidylinositol, PIP2 to PIP3 in the presence of ATP and Mg^2+. The PIP3 product is detected by displacement of biotin-PIP3 from an energy transfer complex consisting of Europium labeled anti-GST monoclonal antibody, a GST-tagged PH domain, biotinylated PIP3 and Streptavidin-APC. Excitation of Europium in the complex results in an energy transfer to the APC and a fluorescence emission at 665 nm. The PIP3 product displaces biotin-PIP3 from the complex resulting in a loss of energy transfer and thus a decrease in signal.
To test for the ability of compounds to inhibit the activity of PI3Kα (wild-type), exemplary compounds of formula (I) were dissolved in DMSO and directly distributed into 384-well plates at a volume of 0.5 μL. […] Fluorescence was measured at 615 and 665 nm upon excitation at 340 nm in a Victor™ V5 fluorometer (Perkin Elmer, USA). The fluorescence emission ratio at 665 to 615 nm, proportional to the kinase activity, was plotted against the compound concentration to generate dose-response curves and IC50 values were determined using GraphPad Prism® 5 software. […]

IC50 (PI3 kinase isoform γ)	SMILES	IC50 (pAkt(5473), T47D cells)	IC50 (pS6RP, T47D cells)	IC50 (pAkt(5473), BT474 cells)	IC50 (pS6RP, BT474 cells)	IC50 (T47D cells)	IC50 (BT474 cells)
	CN(C)C(=O)c1ccc(NC(=O)Nc2ccc(-c3nc(N4CCOCC4)c4ccc(-c5cncnc5)cc4n3)cc2)cc1 [Example 1, N,N-Dimethyl-4-(3-{4-[4-morpholin-4-yl-7-pyrimidin-5-yl-quinazolin-2-yl)-phenyl]-ureido}-benzamide]	< 0.3 µM	< 0.05 µM	< 0.3 µM	< 0.05 µM	< 0.1 µM	< 0.1 µM
< 1 µM	Cc1ccc(-c2ccc3c(N4CCOCC4)nc(-c4ccc(NC(=O)Nc5ccc(C(=O)N(C)C)cc5)cc4)nc3c2)o1 [Example 2, N,N-Dimethyl-4-(3-{4-[7-(5-methyl-furan-2-yl)-4-morpholin-4-yl-quinazolin-2-yl]-phenyl}-ureido)-benzamide]						
